# Reference: paper PMC8373216, “Development and Preclinical Evaluation of New Inhaled Lipoglycopeptides for the Treatment of Persistent Pulmonary Methicillin-Resistant Staphylococcus aureus Infections” (Antimicrobial Agents and Chemotherapy, 2021)
# Like-named read-outs stand apart in the source and are kept apart here.
# How the values were obtained:
# Moraxella catarrhalis = assay: Expanded panel broth microdilution MIC; type: cell-based
# Streptococcus pyogenes = assay: Expanded panel broth microdilution MIC/MBC; type: cell-based; conditions: for MIC: Streptococcus pyogenes
# E. cloacae = assay: Expanded panel broth microdilution MIC; type: cell-based; conditions: Enterobacter cloacae, read-out: MIC
# Haemophilus influenzae = assay: Expanded panel broth microdilution MIC; type: cell-based; conditions: for MIC: read-out: MIC
# P. mirabilis = assay: Expanded panel broth microdilution MIC; type: cell-based; conditions: Proteus mirabilis, ATCC43071; P. mirabilis ATCC 43071; read-out: MIC
# Enterococcus faecium = assay: Expanded panel broth microdilution MIC/MBC; type: cell-based; conditions: for MIC: Enterococcus faecium, read-out: MIC
# Enterococcus faecalis = assay: Expanded panel broth microdilution MIC/MBC; type: cell-based
# [1] = tested on: Staphylococcus lugdunensis; assay: Expanded panel broth microdilution MIC; type: cell-based
# C. freundii = assay: Expanded panel broth microdilution MIC; type: cell-based; conditions: Citrobacter freundii; C. freundii MMX 6602; read-out: MIC
# H. parainfluenzae = assay: Expanded panel broth microdilution MIC; type: cell-based; conditions: Haemophilus parainfluenzae; H. parainfluenzae MMX 2529; read-out: MIC
# Cutibacterium acnes = assay: Expanded panel broth microdilution MIC; type: cell-based
# [2] = Single-dose nebulized nose-only inhalation PK in healthy rats; type: in vivo, rat; conditions: rat, in vivo
# In short: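 Ten or eleven rats per cohort dosed once by nebulized nose-only inhalation, delivered dose estimated from 5 min aerosol filter sampling. Lungs and plasma collected from immediately postdose (~30 min) to 168 h; drug quantified by LC-MS/MS after protein precipitation. PK by noncompartmental analysis, linear up/log down.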
# [3] = tested on: MRSA ATCC BAA 1556 (USA300) biofilm; assay: Static MRSA biofilm killing, plastic microtiter plate, MEM
# Acinetobacter baumannii = assay: Expanded panel broth microdilution MIC; type: cell-based; conditions: Acinetobacter baumannii; for MIC: read-out: MIC
# [4] = tested on: MRSA ATCC BAA 1556 (USA300) biofilm; assay: MRSA biofilm killing, MBEC assay system, TSB with 1% human plasma; conditions: MBEC
# E. coli = assay: Expanded panel broth microdilution MIC; type: cell-based; conditions: Escherichia coli, read-out: MIC
# [5] = tested on: Peptostreptococcus micros; assay: Expanded panel broth microdilution MIC; type: cell-based
# Streptococcus agalactiae = assay: Expanded panel broth microdilution MIC/MBC; type: cell-based; conditions: for MIC: Streptococcus agalactiae
# P. vulgaris = assay: Expanded panel broth microdilution MIC; type: cell-based; conditions: Proteus vulgaris; P. vulgaris MMX 9373; read-out: MIC
# [6] = tested on: Peptostreptococcus anaerobius; assay: Expanded panel broth microdilution MIC; type: cell-based
# Pseudomonas aeruginosa = assay: Expanded panel broth microdilution MIC; type: cell-based
# [7] = tested on: Staphylococcus haemolyticus; assay: Expanded panel broth microdilution MIC; type: cell-based
# S. marcescens = assay: Expanded panel broth microdilution MIC; type: cell-based; conditions: Serratia marcescens, ATCC43862; S. marcescens ATCC 43862; read-out: MIC
# K. pneumoniae = assay: Expanded panel broth microdilution MIC; type: cell-based
# Burkholderia cepacia = assay: Expanded panel broth microdilution MIC; type: cell-based
# [8] = male, Sprague Dawley, inhaled or intranasal
compound,measurement,setting,value
"CCCCCCCCCCNCCN[C@@]1(C)C[C@H](O[C@H]2[C@H](Oc3c4cc5cc3Oc3ccc(cc3Cl)[C@@H](O)[C@@H](NC(=O)[C@@H](CC(C)C)NC)C(=O)N[C@@H](CC(N)=O)C(=O)N[C@H]5C(=O)N[C@H]3C(=O)N[C@H](C(=O)N[C@H](C(=O)O)c5cc(O)cc(O)c5-c5cc3ccc5O)[C@H](O)c3ccc(c(Cl)c3)O4)O[C@H](CO)[C@@H](O)[C@@H]2O)O[C@@H](C)[C@H]1O [RV40, N-decylaminoethylvancomycin]",MIC range,Moraxella catarrhalis,1 to 2 µg/mL
same,MIC,"Moraxella catarrhalis; ATCC8176, M. catarrhalis ATCC 8176, read-out: MIC",1 µg/mL
same,MIC,"Moraxella catarrhalis; ATCC8193, M. catarrhalis ATCC 8193, read-out: MIC",32 µg/mL
same,MIC,"Moraxella catarrhalis; M. catarrhalis MMX 3782, read-out: MIC",1 µg/mL
same,MIC:MBC,Streptococcus pyogenes; S. pyogenes ermR,1
same,MIC,"Streptococcus pyogenes; ATCC19615, S. pyogenes ATCC 19615, read-out: MIC",0.06 µg/mL
same,MIC,"Streptococcus pyogenes; S. pyogenes MMX 946, ermR, read-out: MIC",0.008 µg/mL
same,MIC,"Streptococcus pyogenes; S. pyogenes MMX 8778, read-out: MIC",0.015 µg/mL
same,MIC,"Streptococcus pyogenes; S. pyogenes ermR, 1 isolate, read-out: MIC",0.008 µg/mL
same,MIC,"Streptococcus pyogenes; S. pyogenes, 2 isolates, read-out: MIC (median)",0.04 µg/mL
same,MIC,"E. cloacae; ATCC49141, E. cloacae ATCC 49141",> 64 µg/mL
same,MIC,"E. cloacae; ATCCBAA1143, E. cloacae ATCC BAA-1143, AmpC",> 64 µg/mL
same,MIC range,Haemophilus influenzae,16 to 32 µg/mL
same,MIC,"Haemophilus influenzae; ATCC49247, H. influenzae ATCC 49247, BL-",64 µg/mL
same,MIC,"Haemophilus influenzae; H. influenzae MMX 7988, BL+",32 µg/mL
same,MIC,P. mirabilis,> 64 µg/mL
same,MIC:MBC,Enterococcus faecium; E. faecium VanA VRE,>4
same,MIC:MBC,Enterococcus faecium; E. faecium VanB VRE,>8
same,MIC,"Enterococcus faecium; E. faecium MMX 4204, VSE",4 ng/mL
same,MIC,"Enterococcus faecium; E. faecium VSE, 1 isolate",4 ng/mL
same,MIC,"Enterococcus faecium; VRE, E. faecium MMX 173, VanB VRE",8 ng/mL
same,MIC,"Enterococcus faecium; VRE, E. faecium MMX 851, VanA VRE",1000 ng/mL
same,MIC,"Enterococcus faecium; VRE, E. faecium VanA VRE, 1 isolate",1000 ng/mL
same,MIC,"Enterococcus faecium; VRE, E. faecium VanB VRE, 1 isolate",8 ng/mL
same,MIC:MBC,"Enterococcus faecalis; E. faecalis VSE, MBC on one organism",>8
same,MIC:MBC,Enterococcus faecalis; E. faecalis VanA VRE,8
same,MIC,"Enterococcus faecalis; E. faecalis VanA VRE, 1 isolate",0.5 µg/mL
same,MIC,"Enterococcus faecalis; Enterococcus faecalis, ATCC29212, E. faecalis ATCC 29212, VSE, read-out: MIC",0.015 µg/mL
same,MIC,"Enterococcus faecalis; Enterococcus faecalis, E. faecalis MMX 1086, VanA VRE, read-out: MIC",0.5 µg/mL
same,MIC,"Enterococcus faecalis; Enterococcus faecalis, E. faecalis MMX 4176, VSE, read-out: MIC",0.03 µg/mL
same,MIC,"Enterococcus faecalis; Enterococcus faecalis, E. faecalis VSE, 2 isolates, read-out: MIC (median)",0.023 µg/mL
same,MIC,"[1]; S. lugdunensis, 1 isolate",4 ng/mL
same,MIC,"[1]; Staphylococcus lugdunensis, S. lugdunensis MMX 8724, read-out: MIC",4 ng/mL
same,MIC,C. freundii,> 64 µg/mL
same,MIC,H. parainfluenzae,16 µg/mL
same,MIC,"Cutibacterium acnes; ATCC6919, P. acnes ATCC 6919, read-out: MIC",8 ng/mL
same,MIC,"Cutibacterium acnes; ATCC11827, P. acnes ATCC 11827, read-out: MIC",8 ng/mL
same,MIC,"Cutibacterium acnes; C. acnes, 2 isolates, read-out: MIC (median)",8 ng/mL
same,Pulmonary dose,"[2]; male, Sprague Dawley",0.30 mg/kg
same,Drug lung level at 120 h,"[2]; male, Sprague Dawley, 120 h",105%
same,Kp,[2]; [8],690
same,Lung AUC0-∞,[2]; [8],9800 µg·h/g
same,Lung Cmax,[2]; [8],48 µg/g
same,Plasma Cmax,[2]; [8],0.10 µg/mL
same,Elimination from the lung,[2],not measurably eliminated from the lung
same,Reduction in MRSA biofilm titer versus control,[3]; doses 1 to 10 μg/ml,~3 log10 CFU/ml
same,Concentrations with statistically significant reduction versus control biofilm,"[3]; two-way ANOVA, Bonferroni",≥ 1.25 µg/mL
same,MIC range,Acinetobacter baumannii,32 to 64 µg/mL
same,MIC,"Acinetobacter baumannii; A. baumannii MMX 3372, MDR",64 µg/mL
same,MIC,"Acinetobacter baumannii; A. baumannii MMX 6974, colistinR",32 µg/mL
same,MIC,"Acinetobacter baumannii; NCTC13304, A. baumannii NCTC 13304, OXA-27",> 64 µg/mL
same,Reduction in MRSA biofilm titer compared to untreated biofilm,[4]; 128 μg/ml,4 log10 CFU/peg
same,Concentrations with statistically significant reduction versus control biofilm,"[4]; two-way ANOVA, Bonferroni",≥ 4 µg/mL
same,MIC,"E. coli; ATCC25922, E. coli ATCC 25922, non-ESBL",> 64 µg/mL
same,MIC,"E. coli; E. coli MMX 5684, ESBL (TEM-10)",> 64 µg/mL
same,MIC,"[5]; P. micros, 1 isolate",0.06 µg/mL
same,MIC,"[5]; Parvimonas micra, P. micros MMX 3546, read-out: MIC",0.06 µg/mL
same,MIC:MBC,"Streptococcus agalactiae; S. agalactiae, MBC on one organism",1
same,MIC,"Streptococcus agalactiae; ATCC13813, S. agalactiae ATCC 13813, read-out: MIC",8 ng/mL
same,MIC,"Streptococcus agalactiae; S. agalactiae MMX 4088, read-out: MIC",8 ng/mL
same,MIC,"Streptococcus agalactiae; S. agalactiae MMX 4115, ermR, read-out: MIC",8 ng/mL
same,MIC,"Streptococcus agalactiae; S. agalactiae ermR, 1 isolate, read-out: MIC",8 ng/mL
same,MIC,"Streptococcus agalactiae; S. agalactiae, 2 isolates, read-out: MIC (median)",8 ng/mL
same,MIC,P. vulgaris,> 64 µg/mL
same,MIC,"[6]; ATCC27337, P. anaerobius ATCC 27337, read-out: MIC",8 ng/mL
same,MIC,"[6]; P. anaerobius, 1 isolate, read-out: MIC",8 ng/mL
same,MIC,Pseudomonas aeruginosa,> 64 µg/mL
same,MIC,"Pseudomonas aeruginosa; ATCC27853, P. aeruginosa ATCC 27853, read-out: MIC",> 64 µg/mL
same,MIC,"Pseudomonas aeruginosa; P. aeruginosa MMX 2562, MDR, read-out: MIC",> 64 µg/mL
same,MIC,"[7]; ATCC29970, S. haemolyticus ATCC 29970, read-out: MIC",0.015 µg/mL
same,MIC,"[7]; S. haemolyticus, 1 isolate, read-out: MIC",0.015 µg/mL
same,MIC,S. marcescens,> 64 µg/mL
same,MIC,"K. pneumoniae; K. pneumoniae MMX 4679, KPC-2",> 64 µg/mL
same,MIC,"K. pneumoniae; Klebsiella pneumoniae, K. pneumoniae MMX 2542, read-out: MIC",> 64 µg/mL
same,MIC,Burkholderia cepacia,> 64 µg/mL
same,MIC,"Burkholderia cepacia; B. cepacia MMX 9040, read-out: MIC",> 64 µg/mL
